One test has as its system OCL. Put plainly: PARP cleavage in osteoclasts (OCL), mono- and coculture. The format is cell-based, human. As to the method:
Human MM cell lines used were as follows: NCI-H929, OPM-2, LP-1, RPMI-8226, U266 (DSMZ, Braunschweig, Germany). Cell lines were cultured in RPMI 1640 medium (Biochrom, Berlin, Germany) supplemented with 10% heat-inactivated fetal calf serum (FCS, Gibco, Karlsruhe, Germany), 1 mM sodium pyruvate and 100 units/ml penicillin and 100 μg/ml streptomycin (Gibco). Human osteoclasts were obtained as described in the reference of Zavrski I, Krebbel H, Wildemann B, et al. Proteasome inhibitors abrogate osteoclast differentiation and osteoclast function. Biochem Biophys Res Commun. 2005; 333:200-205. Briefly, peripheral blood mononuclear cells (PBMC) were isolated from whole blood of healthy volunteers, using a Ficoll-Hypaque density gradient. The adherent fraction of the isolated mononuclear cells was cultured for 21 days in MEM medium (Sigma-Aldrich Chemie, Taufkirchen, Germany) supplemented with 10% FCS, 100 U/ml penicillin, 100 μg/ml streptomycin, 50 ng/ml M-CSF, and 25 ng/ml RANKL (osteoclastogenic medium), before coculture experiments and treatment with the inventive compounds started. […]
Whole cell extracts were prepared and quantified as described in Jundt F, Anagnostopoulos I, Forster R, Mathas S, Stein H, Dorken B. Activated Notch1 signaling promotes tumor cell proliferation and survival in Hodgkin and anaplastic large cell lymphoma. […]

For test [1], the system named is OPM-2 cells. Put plainly: Cell cycle analysis (propidium iodide), sub-G1 fraction, OPM-2. The test is classed as cell-based, human. The settings on record: OPM-2, after 72 h. Here is the method:
(§1) The compound according to example 1, hereinafter referred to as GSI15, (compound RH02015SC, Maybridge, Acros Organics, Geel, Belgium) was freshly dissolved as 26 mM stock solution in Dimethylsulfoxide (DMSO). Multiple myeloma therapeutics used were melphalan (marketed as Alkeran®, GlaxoSmithKline, Munich, Germany) and bortezomib (marketed as Velcade®, Janssen-Cilag, Neuss, Germany). Melphalan was freshly dissolved at 10 mg/ml in 0.9% NaCl-solution. Bortezomib was freshly dissolved at 100 ng/ml in 0.9% NaCl solution. Gamma Secretase Inhibitor (GSI) treatment for apoptosis assessment by AnnexinV/PI staining, cell cycle analysis and coculture experiments was performed in 6-well plates. GSI15 stock solution was added directly to the cell suspension. GSI treatment for assaying proliferation was performed in 96-well plates. […]
(§2) For cell cycle analysis 2×10^5 cells were spun down, medium was aspirated and cells washed with PBS. […] After 10 minutes incubation in the dark at room temperature, cells were analyzed by flow cytometry. The amount of apoptotic cells was determined by AnnexinV/propidium iodide staining using Human AnnexinV-FITC Kit (Bender Medsystems, Vienna, Austria), according to manufacturer's protocol. […] Cells were then spun down again, resuspended in binding buffer containing PI and analyzed by flow cytometry.

The subject of a further test is human podocyte cell line. Description: TGFβ-induced apoptosis in human podocyte cell line (Cell Death Detection ELISA). The format is cell-based. Here is the method:
The percentage of the apoptotic cells was determined after 24 hours using the Cell Death Detection ELISA (Roche Diagnostics, Mannheim, Germany) according to the manufaturer's protocol.
A general note: In an ELISA, binding on a coated surface is turned into a signal by an enzyme label.

In test [2] the test system is OPM-2 cells. Put plainly: Apoptosis by AnnexinV-FITC/PI staining, OPM-2. The test is classed as cell-based, human. Here is the method: The compound according to example 1, hereinafter referred to as GSI15, (compound RH02015SC, Maybridge, Acros Organics, Geel, Belgium) was freshly dissolved as 26 mM stock solution in Dimethylsulfoxide (DMSO). Multiple myeloma therapeutics used were melphalan (marketed as Alkeran®, GlaxoSmithKline, Munich, Germany) and bortezomib (marketed as Velcade®, Janssen-Cilag, Neuss, Germany). Melphalan was freshly dissolved at 10 mg/ml in 0.9% NaCl-solution. Bortezomib was freshly dissolved at 100 ng/ml in 0.9% NaCl solution. Gamma Secretase Inhibitor (GSI) treatment for apoptosis assessment by AnnexinV/PI staining, cell cycle analysis and coculture experiments was performed in 6-well plates. GSI15 stock solution was added directly to the cell suspension. GSI treatment for assaying proliferation was performed in 96-well plates. 10,000 cells per well were seeded in 50 μl medium per well before 50 μl of a 2× solution of GSI15 prediluted in medium were added per well. Melphalan and bortezomib treatment as well as their combination with GSI15 for assaying apoptosis by AnnexinV/PI staining was done in 6-well plates. All inhibitors were added directly to the cells in 6-well plates.
For cell cycle analysis 2×10^5 cells were spun down, medium was aspirated and cells washed with PBS. Cells were then resuspended in 250 μl PBS. 1 ml ice-cold 70% ethanol was added, followed by overnight incubation at −20° C. Cells were spun down, the pellet washed with PBS and then resuspended in 200 μl PBS containing 0.15 mg/ml RNaseA and 30 μg/ml propidium iodide (PI). After 10 minutes incubation in the dark at room temperature, cells were analyzed by flow cytometry. The amount of apoptotic cells was determined by AnnexinV/propidium iodide staining using Human AnnexinV-FITC Kit (Bender Medsystems, Vienna, Austria), according to manufacturer's protocol. Briefly, 2×10^5 cells were spun down and washed with PBS, followed by 10 minutes incubation in binding buffer containing AnnexinV-FITC conjugate. Cells were then spun down again, resuspended in binding buffer containing PI and analyzed by flow cytometry.

A further test concerns U266 cells. Put plainly: Apoptosis by AnnexinV-FITC/PI staining, U266. The test is classed as cell-based, human. Here is the method: as §1, §2

As to `CC(C)c1ccc(S(=O)(=O)Nc2cccnc2Oc2ccc(Cl)cc2)cc1` [Example 1, N-(2-(4-chlorophenoxy)pyridin-3-yl)-4-isopropylbenzenesulfonamide], the PARP cleavage entry with OCL (OCL alone) is listed as “did not induce PARP cleavage”; in the test with OCL (OCL cocultured with OPM-2 cells, high doses of GSI15), “it was induced”. For the same compound, the sub-G1 fraction result in the test with OPM-2 cells [1] is on record as “increase in the sub-G1 fraction”. For the same compound, the “effect in podocyte cell culture experiments” value with human podocyte cell line is listed as “positive effect”. Also, in the test with human podocyte cell line (Homo sapiens, 500 nM, compared to TGFβ alone, 24 hours), the inhibition at 0.5 µM came out at 41%. Also, the apoptosis induction entry with OPM-2 cells [2] (OPM-2, 40 μM GSI15 alone, 24 h) is “did not induce apoptosis”. Also, the AnnexinV-FITC/PI staining entry in the test with OPM-2 cells [2] (OPM-2, 48 h of treatment) was “decrease of OPM-2 cells negative for both Annexin V-FITC- and PI-staining”; in the test with U266 cells, “remained unaffected”. In addition, the “overall amount of apoptotic cells” value with OPM-2 cells [2] (OPM-2 alone, 60 μM GSI15, 48 h) was found to be 29%.

As usually defined, the inhibition is the percentage by which the read-out fell short of the control. A higher inhibition goes with a response far below the control.

The values are drawn from patent publication US20110251220A1, “Pharmaceutical compositions comprising gamma secretase modulators” (priority 2008, published 2011).
